From patent US20240262806A1, “INHIBITORS OF NLRP3” (PTC THERAPEUTICS, INC., priority 2021, published 2024)
Like-named read-outs stand apart in the source and are kept apart here.

Tested on: NLRP3 inflammasome
Assay: IL-1β Secretion Assay (NLRP3-dependent IL-1β secretion in PMA-differentiated THP-1 cells, nigericin activation, HTRF)
Format: cell-based
Conditions: 100 ng/mL PMA 24 h, compound 20 h, 2.5 μM Nigericin 3 h, read-out: IC50 IL-1β Inhibition
Summary of the method: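 PMA-differentiated THP-1 cells in RPMI with 5% FBS were treated with compounds at 7 concentrations in threefold DMSO dilutions. NLRP3 was activated with nigericin and secreted IL-1β measured by HTRF. IC50 from a logistic fit of percent inhibition versus concentration.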

[1] = Homo sapiens, THP-1, THP-1 cells

**Q.** With `C[C@H](O)CNc1nnc(-c2ccc(C(F)(F)F)cc2O)c2c(F)ccn12` [Compound I-595] as the compound, how does the IC50 [1] read?
**A.** The IC50 was 10 to 100 nM.

**Q.** For `CCN1CCC[C@@H](Nc2nnc(-c3ccc(C(F)(F)F)cc3O)c3cccn23)C1` [Compound I-479], which IC50 [1] is on record?
**A.** Its IC50 is < 1 nM.

**Q.** With `CN1CCC[C@@H](Nc2nnc(-c3ccc(Cl)cc3C#N)c3ccncc23)C1` [Compound I-157] as the compound, how does the IC50 [1] read?
**A.** Its IC50 is 1 to 10 nM.

**Q.** How did the IC50 [1] turn out when `Cc1cc(OC(F)F)c(-c2nnc(N[C@@H]3CCCN(C)C3)c3cnccc23)cc1F` [Compound I-178] was run?
**A.** Its IC50 is 1 to 10 nM.

**Q.** Which IC50 [1] does the source give for `CCN1CCC[C@@H](Nc2nnc(-c3c(O)cc(C(F)(F)F)cc3F)c3cccn23)C1` [Compound I-414] here?
**A.** The IC50 was < 1 nM.

**Q.** With `FC(F)OCCN1CCC[C@@H](Nc2nnc(-c3ccc(C(F)(F)F)cc3C(F)(F)F)c3cccn23)C1` [Compound I-469] as the compound, how does the IC50 [1] read?
**A.** Its IC50 is 10 to 100 nM.

**Q.** Which IC50 [1] does the source give for `CN1CCC[C@@H](Nc2nnc(-c3ccc(C4=CCOCC4)cc3O)c3ccccc23)C1` [Compound I-56] here?
**A.** The IC50 was 10 to 100 nM.

**Q.** How did the IC50 [1] turn out when `CC(C)(O)CNc1nnc(-c2ccc(C(F)(F)F)cc2C(F)(F)F)c2cccn12` [Compound I-531] was run?
**A.** Its IC50 is 10 to 100 nM.

**Q.** How did the IC50 [1] turn out when `CN1CCC[C@@H](Nc2nnc(-c3ccc(C#N)nc3O)c3ccccc23)C1` [Compound I-80] was run?
**A.** Its IC50 is 100 to 300 nM.

**Q.** `[2H]C([2H])([2H])Oc1ccc(-c2nnc(N[C@@H]3CCCN(C)C3)n3cccc23)c(O)c1` [Compound I-501, (R)-5-(Methoxy-d3)-2-(4-((1-methylpiperidin-3-yl)amino)pyrrolo[1,2-d][1,2,4]triazin-1-yl)phenol] was tested. Which IC50 [1] did it give?
**A.** Its IC50 is < 1 nM.

**Q.** `Oc1cc(C(F)(F)F)ccc1-c1nnc(N[C@H]2CNCC[C@H]2F)c2cnccc12` [Compound I-301] was tested. Which IC50 [1] did it give?
**A.** Its IC50 is 1 to 10 nM.

**Q.** For `Cc1ccc(-c2nnc(N[C@@H]3CCCN(C)C3)c3ccccc23)c(O)c1` [Compound I-25], which IC50 [1] is on record?
**A.** Its IC50 is < 1 nM.

**Q.** For `COc1cc(C)cc(O)c1-c1nnc(N[C@@H]2CCCN(C)C2)c2cnccc12` [Compound I-267], which IC50 [1] is on record?
**A.** Its IC50 is 1 to 10 nM.

**Q.** `Oc1cc(C(F)(F)F)ccc1-c1nnc(NC2CCCNCC2)c2cnccc12` (stereo not shown) [Compound I-253] was tested. Which IC50 [1] did it give?
**A.** Its IC50 is 1 to 10 nM.

**Q.** With `C[C@]1(O)C[C@@H](Nc2nnc(-c3ccc(C(F)(F)F)cc3C(F)F)c3cccn23)C1` [Compound I-427] as the compound, how does the IC50 [1] read?
**A.** Its IC50 is 10 to 100 nM.

**Q.** For `CN1C[C@H](F)C[C@@H](Nc2nnc(-c3ccc(C(F)(F)F)cc3O)c3ccccc23)C1` [Compound I-151], which IC50 [1] is on record?
**A.** Its IC50 is < 1 nM.

**Q.** With `C[C@]1(O)C[C@@H](Nc2nnc(-c3c(O)cc(C4CC4)cc3F)c3cccn23)C1` [Compound I-467] as the compound, how does the IC50 [1] read?
**A.** The IC50 was 1 to 10 nM.

**Q.** Which IC50 [1] does the source give for `CCN1CCC[C@@H](Nc2nnc(-c3ccc(C(F)(F)F)cc3O)c3c2CCCC3)C1` [Compound I-19] here?
**A.** Its IC50 is < 1 nM.

**Q.** How did the IC50 [1] turn out when `COc1ccc(-c2nnc(N[C@@H]3CCCN(C)C3)c3cnccc23)c(C)c1` [Compound I-254] was run?
**A.** The IC50 was 1 to 10 nM.

**Q.** Which IC50 [1] does the source give for `CN1CCCCC1CNc1nnc(-c2ccc(C(F)(F)F)cc2O)c2ccncc12` (stereo not shown) [Compound I-243] here?
**A.** Its IC50 is 1 to 10 nM.

**Q.** Which IC50 [1] does the source give for `CCN1CCC[C@@H](Nc2nnc(-c3c(C)cc(C)cc3O)c3cccn23)C1` [Compound I-636] here?
**A.** The IC50 was < 1 nM.

**Q.** Which IC50 [1] does the source give for `CCN1CCC[C@@H](Nc2nnc(-c3c(O)cc(OC)cc3F)c3cc(C)nn23)C1` [Compound I-555] here?
**A.** The IC50 was < 1 nM.

**Q.** How did the IC50 [1] turn out when `OCCN1CCC[C@@H](Nc2nnc(-c3ccc(Cl)cc3O)c3cncn23)C1` [Compound I-436] was run?
**A.** The IC50 was 1 to 10 nM.

**Q.** With `CN1CCC[C@@H](Nc2nnc(-c3ccc(OC(F)(F)F)cc3OC(F)F)c3ccncc23)C1` [Compound I-191] as the compound, how does the IC50 [1] read?
**A.** The IC50 was 1 to 10 nM.

**Q.** `Oc1cc(C(F)(F)F)ccc1-c1nnc(N[C@@H]2CC[C@H](O)C2)n2cccc12` [Compound I-448] was tested. Which IC50 [1] did it give?
**A.** The IC50 was 10 to 100 nM.

**Q.** For `Cc1cc(O)c(-c2nnc(NCC(C)(C)O)n3cccc23)c(F)c1` [Compound I-539], which IC50 [1] is on record?
**A.** The IC50 was 1 to 10 nM.

**Q.** For `Cc1ccc(-c2nnc(N[C@@H]3CCCN(C)C3)c3cnccc23)c(C(F)F)c1` [Compound I-299], which IC50 [1] is on record?
**A.** Its IC50 is < 1 nM.

**Q.** How did the IC50 [1] turn out when `Cc1ccn2c(N[C@@H]3CCCN(C)C3)nnc(-c3ccc(C(F)(F)F)cc3O)c12` [Compound I-321, (R)-2-(8-Methyl-4-((1-methylpiperidin-3-yl)amino)pyrrolo[1,2-d][1,2,4]triazin-1-yl)-5-(trifluoromethyl)phenol] was run?
**A.** Its IC50 is 10 to 100 nM.

**Q.** Which IC50 [1] does the source give for `Oc1cc(C(F)(F)F)ccc1-c1nnc(N[C@@H]2CCCN(CCCF)C2)c2cnccc12` [Compound I-294] here?
**A.** Its IC50 is < 1 nM.

**Q.** For `FC(F)(F)c1ccc(-c2nnc(N[C@@H]3CCCN(C4CCOCC4)C3)n3cccc23)c(C(F)(F)F)c1` [Compound I-516], which IC50 [1] is on record?
**A.** The IC50 was 1 to 10 nM.

**Q.** With `CN1C[C@H](F)C[C@@H](Nc2nnc(-c3c(O)cc(C(F)(F)F)cc3F)c3cccn23)C1` [Compound I-416] as the compound, how does the IC50 [1] read?
**A.** Its IC50 is 1 to 10 nM.

**Q.** `CN1C[C@H](F)C[C@@H](Nc2nnc(-c3c(O)cc(Cl)cc3F)c3cccn23)C1` [Compound I-481] was tested. Which IC50 [1] did it give?
**A.** The IC50 was 1 to 10 nM.

**Q.** Which IC50 [1] does the source give for `CCN1CCC[C@@H](Nc2nnc(-c3c(O)cc(C4CC4)cc3F)c3c(F)ccn23)C1` [Compound I-602] here?
**A.** The IC50 was < 1 nM.

**Q.** With `Oc1cc(C(F)(F)F)ccc1-c1nnc(NCCN2CCOCC2)c2ccccc12` [Compound I-108] as the compound, how does the IC50 [1] read?
**A.** Its IC50 is 10 to 100 nM.

**Q.** How did the IC50 [1] turn out when `Oc1cc(C(F)(F)F)ccc1-c1nnc(N[C@H]2C[C@](O)(C(F)(F)F)C2)n2cccc12` [Compound I-405] was run?
**A.** The IC50 was 100 to 300 nM.

**Q.** For `C[C@]1(O)C[C@@H](Nc2nnc(-c3ccc(C(F)(F)F)cc3C(F)(F)F)c3cccn23)C1` [Compound I-532], which IC50 [1] is on record?
**A.** The IC50 was 1 to 10 nM.

**Q.** For `CN1CCC[C@@H](Nc2nnc(-c3ccc(-c4ccccc4)cc3O)c3ccccc23)C1` [Compound I-39], which IC50 [1] is on record?
**A.** The IC50 was 1 to 10 nM.

**Q.** For `C[C@]1(O)C[C@@H](Nc2nnc(-c3c(O)cc(Cl)cc3F)c3cccn23)C1` [Compound I-434], which IC50 [1] is on record?
**A.** Its IC50 is 1 to 10 nM.

**Q.** For `Cc1cc(C)c(-c2nnc(N[C@@H]3CCCN(C)C3)c3cnccc23)c(C)c1` [Compound I-205], which IC50 [1] is on record?
**A.** The IC50 was 1 to 10 nM.

**Q.** `C[C@H](O)CNc1nnc(-c2c(O)cc(C3CC3)cc2F)c2cccn12` [Compound I-500] was tested. Which IC50 [1] did it give?
**A.** The IC50 was 10 to 100 nM.

**Q.** With `COc1cc(C(F)(F)F)ccc1-c1nnc(N[C@@H]2CCCN(C)C2)c2cnccc12` [Compound I-119] as the compound, how does the IC50 [1] read?
**A.** Its IC50 is 1 to 10 nM.

**Q.** Which IC50 [1] does the source give for `CN1CCC[C@@H](Nc2nnc(-c3ccc(Cl)cc3O)c3c2CCC3)C1` [Compound I-314] here?
**A.** Its IC50 is 1 to 10 nM.

**Q.** How did the IC50 [1] turn out when `Oc1cc(C(F)(F)F)ccc1-c1nnc(CC2CCCNC2)c2ccccc12` (stereo not shown) [Compound I-30] was run?
**A.** Its IC50 is 10 to 100 nM.

**Q.** How did the IC50 [1] turn out when `CN1C[C@H](F)C[C@@H](Nc2nnc(-c3ccc(OC(F)(F)F)cc3O)c3cccn23)C1` [Compound I-409] was run?
**A.** The IC50 was 1 to 10 nM.

**Q.** How did the IC50 [1] turn out when `CN1CCC[C@@H](Nc2nnc(-c3ccc(-n4nccn4)cc3O)c3ccncc23)C1` [Compound I-137] was run?
**A.** Its IC50 is < 1 nM.

**Q.** Which IC50 [1] does the source give for `CN1CCC[C@@H](Nc2nnc(-c3ccc(C(F)(F)F)cc3N)c3ccccc23)C1` [Compound I-123] here?
**A.** The IC50 was 1 to 10 nM.

**Q.** How did the IC50 [1] turn out when `CN1CCC[C@@H](Nc2nnc(-c3ccc(C(F)(F)F)cc3C(F)(F)F)c3ccncc23)C1` [Compound I-177] was run?
**A.** Its IC50 is 1 to 10 nM.

**Q.** `Oc1cc(C(F)(F)F)ccc1-c1nnc(NC2CNC2)c2ccccc12` [Compound I-109] was tested. Which IC50 [1] did it give?
**A.** The IC50 was 10 to 100 nM.

**Q.** Which IC50 (THP-1 cells) does the source give for `Cc1cc2c(-c3ccc(C4CC4)cc3OC(F)(F)F)nnc(N[C@@H]3CCCN(C)C3)n2n1` [Compound I-418] here?
**A.** The IC50 was 1 to 10 nM.

**Q.** With `Cc1cc(O)c(-c2nnc(N[C@@H]3CCCOC3)n3cccc23)c(F)c1` [Compound I-421] as the compound, how does the IC50 [1] read?
**A.** The IC50 was 1 to 10 nM.

**Q.** `Cc1cc2c(-c3ccc(C(F)(F)F)cc3OC(F)F)nnc(N[C@@H]3CCCN(CCO)C3)n2n1` [Compound I-375, (R)-2-(3-((4-(2-(Difluoromethoxy)-4-(trifluoromethyl)phenyl)-2-methylpyrazolo[1,5-d][1,2,4]triazin-7-yl)amino)piperidin-1-yl)ethan-1-ol] was tested. Which IC50 [1] did it give?
**A.** The IC50 was 1 to 10 nM.

**Q.** How did the IC50 [1] turn out when `Cc1cc(F)c(-c2nnc(N[C@@H]3CCCN(C4CCOCC4)C3)n3cccc23)c(OC(F)F)c1` [Compound I-475] was run?
**A.** Its IC50 is 10 to 100 nM.
